Each structure is given as a SMILES string.

Test [1] deals with Phalaenopsis plants. In words: Induction of spiking in potted Phalaenopsis by spraying, number of inflorescences per plant. It is filed as in vivo. Particulars: spray 1000 ppm, 0.1% Zipper, 1% DMSO, 100 plants. The text has this:
Growing conditions for the plants throughout the whole greenhouse stay are the same, except for the above discussed variations in light and temperature. Preferably this means that the plants are potted in pots with a diameter of 10-20 cm, with a growing medium of bark, coconut, Styrofoam, sphagnum moss and turf. Preferably they are stored on table-high racks, which facilitates handling. Light intensity on the surface of the pot is 3000-15000 lux (see Schapendonlk, A.H.C.M., “Belichting Phalaenopsis”, PT-Project 12170, productverslag, Productschap Tuinbouw). Normal daylight is maintained, but preferably in wintertime a lights on:lights off regime of 14:10 hours is used. Watering is preferably automated and is taken care of by a sprinkler system or any other spraying system, an ebb and flow system, via gutters running along the racks, or by submerging the pots in a water basin Nutrients and/or fertiliser are added to the water on a regular basis (EC 0,5-2, NPK 20-20-20). See also ook “Cultivation Guidelines Phalaenopsis Pot Plants, supra.
In June 2004 three groups of Phalaenopsis plants have been induced 6 months after potting. For testing 100 plants were treated and 100 non-treated controls were used per variety. Both groups of plants were cultured as described above. […] The results in Table 1 show the number of inflorescences per plant for the different test groups.

Test [2] relates to Phalaenopsis. Particulars: cited from earlier work.
The subject of test [3] is Dendrobium. Particulars: application to the mature pseudobulbs, not the developing ones; cited from earlier work.

Turning to `c1ccc(CNc2ncnc3nc[nH]c23)cc1` [6-BA-P, 6-benzylaminopurine], the Average stemcount treated is reported as 3.61 in test [1] (variety Anthura Malaga, untreated 1.23); 3.20 in test [1] (variety Brother John Red Delight, untreated 1.13); 3.84 in test [1] (variety Dutch Lady, untreated 1.58); 2.97 in test [1] (variety Golden Treasure, untreated 1.44); 3.38 in test [1] (variety Lippe Flair 344, untreated 1.32); 3.12 in test [1] (variety Maliby Leopard, untreated 1.51). The “induction of off-season spiking” value in test [2] is given as “unable to induce off-season spiking”. For the same compound, the triggering of spiking result in test [3] is reported as “shown to trigger spiking”.

The values above are taken from patent US20070122907A1, “Orchid culturing method” (priority 2005, published 2007).
